In US6294526A, “Use of flavone derivatives for induction of β-lactam-sensitivity of MRSA” (priority 1998, dated 2001):

How the values were obtained:
MRSA = experiment: antibacterial activity (MIC) by agar plate dilution method, MRSA strains; assay type: cell-based, methicillin-resistant Staphylococcus aureus; conditions: Staphylococcus aureus, 20 h, MRSA (20 strains); for MIC50: read-out: MIC50; for MIC: MRSA, range over strains, read-out: MIC
Procedure, shortened: (§1)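 Mueller-Hinton agar plates containing 2-fold serial β-lactam dilutions plus a fixed concentration of test sample; inoculum 10^6 CFU/ml, 37° C. for 20 hours. MIC read as concentration inhibiting growth; MIC80 and MIC50 = 80% and 50% growth inhibition. Flavones dissolved in methanol, others in 0.1 N NaOH.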

MRSA or MSSA = experiment: inhibition of methicillin resistance by flavone derivatives, MRSA or MSSA; assay type: cell-based, Staphylococcus aureus; conditions: methicillin with flavone derivative, Table 4
Experimental: The screening of the present invention may be carried out according to the agar plate dilution method designated by the Japan Society of Chemotherapy (Chemotherapy 29(1), 76-79 (1981)). Mueller-Hinton agar base semi-synthetic medium may be used for a plate culture medium for a sensitivity test together with an inoculating bacteria solution which may be prepared by culturing bacteria to be tested at 37° C. for 20 hours diluted with 8.5% by isotonic sodium chloride solution to 10^6 CFU/ml. Diluted β-lactam solutions are prepared by two times serial dilution. 1 ml of the diluted β-lactam solution and 1 ml of a predetermined concentration of a sample to be tested are added to 8 ml of the plate culture medium for a sensitivity test. […]
Mueller-Hinton agar base semi-synthetic medium was used as a plate culture medium for the sensitivity test, and an inoculating bacteria solution was prepared by culturing bacteria to be tested at 37° C. for 20 hours and diluting with 8.5% by weight isotonic sodium chloride solution to a final concentration of 10^6 CFU/ml. […] To the resultant plate culture medium for the sensitivity test, the inoculating bacteria were inoculated using a microplanter (SAKUMASEISAKUSYO Co.), cultured for 20 hours at 37° C. and then minimum inhibition concentration (MIC) was assessed.

MSSA = experiment: antibacterial activity (MIC) by agar plate dilution method, MSSA strains; assay type: cell-based, Methicillin-sensitive Staphylooccus aureus; conditions: Staphylococcus aureus, 20 h, MSSA (7 strains); for MIC50: read-out: MIC50; for MIC: MSSA, range over strains, read-out: MIC
Procedure, shortened: as §1

Row | SMILES | MIC50 (MRSA) [µg/mL] | MIC (MRSA) [µg/mL] | inhibition of resistance to methicillin (in words) (MRSA or MSSA) | MIC50 (MSSA) [µg/mL] | MIC (MSSA) [µg/mL]
1 | O=C1c2c(O)cc(O)cc2O[C@H](c2ccc(O)c(O)c2)[C@H]1O [(+)-Taxifolin, (+)-taxifolin] | > 250 | > 250 | inhibited resistance to methicillin | > 250 | > 250
2 | O=c1cc(-c2ccccc2)oc2ccccc12 [Flavone, flavone] | > 250 | > 250 | inhibited the most strongly | > 250 | > 250
